The values below come from patent US20150320762A1, “TREATMENT OF PROLIFERATIVE DISEASES WITH PYRIMIDODIAZEPINONES” (Cyclacel limited, priority 2012, published 2015).

Data set [1] deals with BAC and ESCC cell lines versus the benign OE cell line (CPA). In words: 96-well drug washout/outgrowth anti-proliferative assay (resazurin, day 6). It counts as cell-based. As to conditions: all timepoints. As to the method:
Tumour sensitivity towards Plk1 inhibitors was studied in a panel of oesophageal (OE) cell lines. The cell lines used were: a benign Barrett's (CPA), two Barrett's adenocarcinoma (OE19 and OE33; Sigma Aldrich), and two oesophageal squamous cell carcinoma cell lines (OE21, ECACC; and KYSE-410, ECACC).
The anti-proliferative effect of Plk1 inhibitors was studied in a 96-well format drug washout/outgrowth assay. Cells were seeded at 1.5-2.5×10^3 cells per well in 96-well plates and left to incubate overnight at 37° C., 5% CO2, before addition of a range of concentrations of each of the different Plk1 inhibitors. Cells were incubated with the compounds for various periods of time, ranging from 3 to 24 hours; media containing the compounds was then removed from the cells and replaced with drug-free media until the end of the assay. The cell viability was evaluated on day 6 using a standard resazurin-based assay according to manufacturer's instructions (AlamarBlue, AbD Serotec, Oxford, UK). The IC50 values were determined using IDBS software.
On the technique in general: The colour change of resazurin is a common sign of viable cells or microbes.

For data set [2] the following is noted: mouse, dose 35 mg/kg, Rudolph et al.; cited from earlier work.
The nature of data set [3]: Mouse PK data for selected compounds of the invention. It counts as in vivo. The following applies: dose 1 mg/kg; for AUC / Cmax: plasma. How it is done:
The plasma concentration is measured using standard LC-MS/MS analysis based on the following method. Calibration and control samples are prepared as follows from a 500 μg/mL solution of compound in methanol/DMSA 50/50 v/v. This stock solution is used to prepare diluted working standards of the test items with concentrations from 200 ng/ml to 500,000 ng/ml. The solutions are diluted with methanol and stored at +4° C. in glass vials when not in use. The working solutions are used to prepare calibration standards in control plasma, with a final concentration of between 10 ng/ml and 5000 ng/ml per 100 microlitres of plasma. These standards are prepared on day one of analysis and re-prepared as necessary on each analytical occasion. Internal standards are dissolved in methanol/DMSA 50/50 v/v and diluted to 1 μg/mL in acetonitrile for a working solution.
Plasma samples are extracted by the following method. Transfer 50 microlitres of each calibration, quality control and test sample to a 96-well mictrotitre plate. Add 200 microlitres of a 1 microgram per millilitre internal standard solution in acetonitrile to all samples except for a double blank. 200 microlitres of acetonitrile is added to the double blank. Samples are briefly vortex mixed, and centrifuged at 2128 g for 30 minutes. Recoverable supernatant is transferred to an appropriate well of a microtitre plate and extracts are evaporated with oxygen free nitrogen at a gas temperature of about 40° C. Extracts are reconstituted in 200 μL of mobile phase and mixed well. The plate is sealed with silicone-based pre-pierced web seal and used for LC-MS/MS analysis.
LC-MS/MS analysis can be performed using the following chromatography conditions.

The structures appear in SMILES notation. Like-named read-outs stand apart in the source and are kept apart here.

Turning to `CC[C@@H]1C(=O)N(C)c2cnc(Nc3ccc(C(=O)NC4CCN(C)CC4)cc3OC)nc2N1C1CCCC1` [BI2536], in data set [1], the “differentiation between the cancerous and the benign cell lines” value is on record as “little or no differentiation”.
`CC[C@@H]1C(=O)N(C)c2cnc(Nc3ccc(C(=O)N[C@H]4CC[C@H](N5CCN(CC6CC6)CC5)CC4)cc3OC)nc2N1C(C)C` [BI6727]: in data set [2], the Cl_obs is 10 mL/min/kg; the highest concentration (Cmax) – broadly, the maximum level reached in the sampled fluid or tissue – is 4390 ng/mL; the HL_Lambda_z was 46 h; the Vz_obs is 7.6 L/kg.
Consider `COc1cc(C(=O)N[C@H]2CC[C@H](N3CCN(CC4CC4)CC3)CC2)ccc1Nc1ncc2c(n1)N(C1CCCC1)CC1(CC1)C(=O)N2C` [Compound A1, 4-(9′-cyclopentyl-5′-methyl-6′-oxo-5′,6′,8′,9′-tetrahydrospiro[cyclopropane-1,7′-pyrimido[4,5-b][1,4]diazepine]-2′-ylamino)-N-((trans)-4-(4-(cyclopropylmethyl)piperazin-1-yl)cyclohexyl)-3-methoxybenzamide], for which, in data set [3], the Cl_obs came to 21.22 mL/min/kg, the HL_Lambda_z is 2.89 h, the Vz_obs came to 5.304 L/kg and the AUC (usually concentration integrated over time) came to 631 ng·h/mL. Further, the concentration in data set [3] peaked (Cmax) at 478 ng/mL.
The like results for `COc1cc(C(=O)N[C@H]2CC[C@H](N3CCN(C)CC3)CC2)ccc1Nc1ncc2c(n1)N(C1CCCC1)CC1(CC1)C(=O)N2C` [Compound A7, 4-(9′-cyclopentyl-5′-methyl-6′-oxo-5′,6′,8′,9′-tetrahydrospiro[cyclopropane-1,7′-pyrimido[4,5-b][1,4]diazepine]-2′-ylamino)-N-((trans)-4-(4-methylpiperazin-1-yl)cyclohexyl)-3-methoxybenzamide] were, in that order, 40.75 mL/min/kg, 1.97 h, 6.937 L/kg, 377 ng·h/mL and 453 ng/mL.
The like results for `COc1cc(C(=O)NC2CCN(C3CCOCC3)CC2)ccc1Nc1ncc2c(n1)N(C1CCCC1)CCC(=O)N2C` [Compound A13, 4-(9-cyclopentyl-5-methyl-6-oxo-6,7,8,9-tetrahydro-5H-pyrimido[4,5-b][1,4]diazepin-2-ylamino)-3-methoxy-N-[1-(tetrahydro-pyran-4-yl)-piperidin-4-yl]-benzamide] were, in that order, 99.8 mL/min/kg, 0.78 h, 6.713 L/kg, 164 ng·h/mL and 405 ng/mL.
